# According to patent publication US8404650B2, “Methods of treating cancer with doxazolidine and prodrugs thereof” (priority 2005, dated 2013):
# Experiments:
# [1] = system: SK-HEP-1 liver cancer cells; experiment: Drug uptake by SK-HEP-1 cells, flow cytometry; type: cell-based; settings: in the presence of fetal bovine serum
# Method: Uptake of pentyl PABC-Doxaz and Dox by multidrug resistant MCF-7/Adr breast cancer cells and SK-HEP-1 liver cancer cells in the presence of fetal bovine serum was determined by flow cytometry using drug fluorescence as a measure of drug in cells.
# human plasmin = human plasmin (Homo sapiens, UniProt P00747); experiment: Plasmin activation of prodrug and release of Doxaz (HPLC); type: biochemical; settings: human, human plasmin; 37° C.; read-out: Half-life in the presence of plasmin
# Sequence of human plasmin (P00747 581-810 limits assumed): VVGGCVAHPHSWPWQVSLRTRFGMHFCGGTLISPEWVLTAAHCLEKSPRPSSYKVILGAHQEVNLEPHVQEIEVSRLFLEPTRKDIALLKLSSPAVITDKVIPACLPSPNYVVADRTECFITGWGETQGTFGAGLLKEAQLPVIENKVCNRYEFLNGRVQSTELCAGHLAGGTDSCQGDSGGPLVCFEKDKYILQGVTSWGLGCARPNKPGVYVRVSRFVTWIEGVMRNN
# Sequence of human plasmin (P00747 97-580 partner limits assumed): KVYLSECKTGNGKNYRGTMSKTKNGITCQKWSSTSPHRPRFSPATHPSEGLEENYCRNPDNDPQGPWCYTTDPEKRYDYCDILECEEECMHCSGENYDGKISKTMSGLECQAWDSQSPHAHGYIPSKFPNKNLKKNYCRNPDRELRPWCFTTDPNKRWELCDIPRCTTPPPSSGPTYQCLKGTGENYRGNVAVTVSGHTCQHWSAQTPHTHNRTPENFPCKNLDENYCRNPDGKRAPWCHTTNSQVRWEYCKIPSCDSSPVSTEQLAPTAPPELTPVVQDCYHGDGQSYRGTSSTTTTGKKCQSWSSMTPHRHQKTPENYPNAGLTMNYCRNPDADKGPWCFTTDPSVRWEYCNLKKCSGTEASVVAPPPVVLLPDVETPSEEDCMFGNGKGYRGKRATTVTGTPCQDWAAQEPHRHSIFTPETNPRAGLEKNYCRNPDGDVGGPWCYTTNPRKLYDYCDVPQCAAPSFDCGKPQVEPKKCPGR
# Method: Both Formulas IV and V were incubated with 15 μg/ml human plasmin and monitored by HPLC at 37° C. Just 4 min after the addition of plasmin, 20 percent of compound 10 was converted to Doxaz and roughly 50% of that Doxaz had hydrolyzed to Doxorubicin. Within 23 minutes, nearly all of the prodrug was converted to Doxaz and subsequently hydrolyzed to Doxorubicin.
# Water solubility = type: physicochemical; settings: as di-cation
# liver cancer = settings: circumstantial data; treatment of liver cancer; cited from earlier work
# [2] = Uptake of pentyl carbamate relative to Dox, flow cytometry, with and without fetal bovine serum; type: cell-based; settings: 10% fetal bovine serum, flow cytometry, 3 h
# Method: Uptake of the pentyl carbamate relative to uptake of Dox was measured by flow cytometry, monitoring fluorescence of the Dox fluorophore as a measure of drug in cells. The measurements were performed over a period of 3 h in the presence and absence of fetal bovine serum, and the results are shown in FIG. 4. […] Further, the presence of 10% fetal bovine serum decreased the uptake of doxorubicin and the pentyl carbamate by about 25%. The more rapid uptake of the pentyl carbamate in the presence and absence of serum probably reflects its increased hydrophobicity relative to that of doxorubicin which is a cation at physiological pH. Increased hydrophobicity may also be the explanation for the effect of serum on the uptake of the carbamate; namely, the carbamate binds to serum proteins reducing drug uptake.
smiles,measurement,setting,value
"CCCCCOC(=O)Nc1ccc(COC(=O)N2COC3C(C)OC(OC4CC(O)(C(=O)CO)Cc5c(O)c6c(c(O)c54)C(=O)c4c(OC)cccc4C6=O)CC32)cc1 (centres unmarked) [Pentyl PABC-Doxaz, Pentyl 4-(N-doxazolidinylcarbonyloxymethyl)phenylcarbamate]","Uptake relative to Dox, SK-HEP-1",[1],taken up much better
"COc1cccc2c1C(=O)c1c(O)c3c(c(O)c1C2=O)C[C@@](O)(C(=O)CO)C[C@@H]3O[C@H]1C[C@H]2[C@H](OCN2C(=O)OCc2ccc(NC(=O)[C@H](CCCCN)NC(=O)[C@H](Cc3ccccc3)NC(=O)[C@@H](C)N)cc2)[C@H](C)O1 [Formula IV, D-Ala-L-Phe-L-Lys-p-aminobenzyloxycarbonyl-Doxaz]",half-life,human plasmin,~6 min
same,Water solubility,Water solubility,excellent water solubility
"COc1cccc2c1C(=O)c1c(O)c3c(c(O)c1C2=O)C[C@@](O)(C(=O)CO)C[C@@H]3O[C@H]1C[C@@H]2NCO[C@@H]2[C@H](C)O1 [Doxaz, Doxazolidine]",Improvement relative to Doxorubicin in a clinical trial,liver cancer,75%
"COc1cccc2c1C(=O)c1c(O)c3c(c(O)c1C2=O)C[C@@](O)(C(=O)CO)C[C@@H]3O[C@H]1C[C@H](N)[C@H](O)[C@H](C)O1 [Doxorubicin, reference compound]",Decrease of uptake by 10% fetal bovine serum,[2],about 25%
